We go through one substance from paper PMC11435093, “Synthesis and Evaluation of ^99mTc(CO)3 Complexes with Ciprofloxacin Dithiocarbamate for Infection Imaging” (Pharmaceutics, 2024).

Data set [1] in a line: Lipophilicity: partition between n-octanol and PBS pH 7.4. Type of data set: physicochemical. The conditions noted are these: n-octanol/PBS pH 7.4, M: 99mTc, three determinations. As to the method: The lipophilicity of HPLC purified technetium-99m complexes 1′–6′ was determined by measuring the partition coefficient (logD7.4) between n-octanol and phosphate-buffered saline (PBS, pH 7.4) based on established literature methods and is briefly described here. An aliquot of each technetium-99m complex was added to a mixture of equal volumes (2.0 mL each) of n-octanol and PBS (pH 7.4) in a 5 mL centrifuge tube. The mixture was vigorously vortexed for 2 min and then centrifuged at 5000 rpm for 5 min to ensure complete phase separation. After centrifugation, 0.1 mL aliquots from both the n-octanol and PBS phases were sampled and their radioactivity was measured using a gamma counter. The log P was calculated using the following equation: […]. The procedure was repeated three times for each complex to ensure reproducibility.

Data set [2] in a line: Stability of HPLC-purified 99mTc complexes (HPLC). Type of data set: physicochemical. The conditions noted are these: HPLC-purified complex, room temperature, periodic HPLC. As for the experimental part: (§1) The preparation of the ^99mTc-labeled complexes from synthesis to HPLC purification was completed within 1.5 h. Then, the stability of HPLC purified technetium-99m complexes 1′–6, with an RCP of 99% (based on HPLC), was assessed by monitoring their RCP over time and under various conditions using HPLC analysis based on established literature methods and is briefly described here.
After purification by HPLC, the stability of the isolated technetium-99m complexes was evaluated over 6 h. The purified complexes were stored at room temperature, and aliquots were taken at 1, 3, and 6 h for HPLC analysis.

In data set [3] the test system is Swiss Albino mice with induced infection (Staphylococcus aureus) and aseptic inflammation (turpentine). The experiment in a line: Biodistribution in mice with induced infection and aseptic inflammation. Type of data set: in vivo. As to the method:
The in vivo behavior of HPLC purified technetium-99m complexes 1′–6′ was evaluated through biodistribution studies in Swiss Albino mice (40 ± 5 g) with induced infection and aseptic inflammation. The experiment was conducted in accordance with the guidelines for the protection of animals used for scientific purposes. Mice were divided into groups and prepared for biodistribution studies by inducing infection and aseptic inflammation. Twenty-four hours prior to the injection of the technetium complexes, the left thigh muscle of each mouse was inoculated with 50 µL of a Staphylococcus aureus suspension (1 × 10^6 CFU/mL) to induce infection. Aseptic inflammation was induced in the right thigh muscle by injecting 50 µL of turpentine oil. The technetium-99m complexes were administered intravenously via the tail vein. Each mouse received an injection of 0.037 MBq of the respective technetium-99m complex. The biodistribution was studied at two different time points, 15 min and 120 min post-injection. At each time point, the mice were sacrificed under anesthesia. Blood samples were obtained by cardiac puncture. The organs of interest were collected after dissection, including the liver, heart, kidneys, stomach, intestines, spleen, muscle (normal, infected, and inflamed), lungs, pancreas, and urinary bladder. The organs were made free from adhering tissues and transferred into pre-weighed counting vials. The radioactivity of the collected samples was measured using a shielded well-type gamma counter. The results were expressed as a percentage of injected dose per gram of tissue (% ID/g). The radioactivity ratios in infected muscle to normal muscle and inflamed muscle to normal muscle were calculated to assess the specificity and selectivity of the technetium complexes for infection and inflammation.

Data set [4] in a line: Cysteine and histidine challenge (transchelation). Type of data set: physicochemical. The note with it: 37 °C, 6 h. As to the method:
as §1
Challenge experiments were performed by incubating the purified complexes with 10^−3 M solutions of cysteine and histidine at 37 °C. For each complex (1′–6′), 0.2 mL of the purified complex was mixed with 0.2 mL of the cysteine or histidine solution and incubated for 6 h. Aliquots were taken at the end of the incubation period and analyzed by HPLC.

For the substance “fac-[^99mTc(CO)3(Cip-DTC)(H2O)] [complex 1′]”, the LogD7.4 in data set [1] amounted to 1.2. The “stability post-purification (integrity, HPLC)” value in data set [2] was found to be 92%. Besides, in data set [3] (15 min post i.v. injection), the “Infection (S. aureus infected muscle) radioactivity” value worked out at 1.06 ± 0.20 %ID/g, the Intestines radioactivity is 0.71 ± 0.11 %ID/g, the Kidneys radioactivity amounted to 5.16 ± 0.32 %ID/g and the Liver radioactivity was 22.05 ± 1.40 %ID/g. In data set [3] (15 min post i.v. injection), the Lungs radioactivity is 6.41 ± 1.14 %ID/g, the “Muscle (normal) radioactivity” value was 0.18 ± 0.02 %ID/g, the Pancreas radioactivity was determined as 0.91 ± 0.04 %ID/g and the Spleen radioactivity turned out to be 9.79 ± 1.69 %ID/g. For the same substance, in data set [3] (15 min post i.v. injection), the Stomach radioactivity amounted to 0.91 ± 0.20 %ID/g. In data set [3] (120 min post i.v. injection), the Kidneys radioactivity turned out to be 5.76 ± 0.65 %ID/g, the Liver radioactivity is 25.96 ± 2.23 %ID/g, the Lungs radioactivity was determined as 4.33 ± 0.41 %ID/g and the “Muscle (normal) radioactivity” value turned out to be 0.18 ± 0.01 %ID/g. Moreover, the Spleen radioactivity in data set [3] (120 min post i.v. injection) worked out at 5.24 ± 0.45 %ID/g. Also, in data set [3] (within 120 min), the “blood clearance / blood radioactivity course” value is on record as “slow blood clearance”. The substance further came in with a stability in cysteine in data set [4] (10^-3 M cysteine) of 90%. Besides, in data set [4] (10^-3 M histidine), the stability in histidine is 91%.
